16 compounds from US20240383874A1, “BENZENE RING DERIVATIVE, AND COMPOSITION AND PHARMACEUTICAL USE THEREOF” (Xizang Haisco Pharmaceutical Co., Ltd., priority 2020, published 2024) can be followed below.

Where a name gives a salt, the structure may show the parent alone.

This test has as its system 22RV1 cells. Description: Experiment 2 on inhibiting 22RV1 cell proliferation (7 days, CellTiter-Glo). It counts as cell-based. Particulars: Homo sapiens, 22Rv1, 168 h, 1% css-FBS phenol red-free medium, incubated with compound 7 days, read-out: IC50 values on proliferation inhibition of 22RV1 cells. How it is done:
Prostate cancer cells 22RV1 were purchased from ATCC, the cell medium was RPMI 1640+10% FBS, and the cells were cultured in an incubator at 37° C. under 5% CO2. On day 1, the cells in an exponential phase were collected. With a 1% css-FBS phenol red-free medium, the cell suspension was adjusted to a corresponding concentration, plated at 2000 cells/well and incubated overnight. On day 2, compounds at different concentrations were added, and the plate was placed in the incubator and incubated for further 7 days. After the incubation was completed, according to operation instructions for a CellTiter-Glo kit (Promega, G7573), 50 μL of CTG solution, which was already pre-melted and equilibrated to room temperature, was added to each well, and the mixtures were uniformly mixed for 2 min using a microplate shaker. The plate was placed at room temperature for 10 min, and then fluorescence signal values were measured using a microplate reader (PHERAstar FSX). The results were processed according to formula (2), the survival rate of the compound at different concentrations was calculated, and the IC50 value of the compound with a survival rate of 50% was calculated using origin9.2 software with DoseResp function, wherein RLU compound was the readout of the treated group, and RLU control was the average value of the DMSO vehicle control group.
For orientation: Cellular ATP, detected with luciferase, serves as a proxy for viable cell number.
Regarding `CC(C)(c1ccc(OCc2ccnc(N3CCC4(CC3)CCN(C3CCN(C5CN(c6ccc7c(c6)C(=O)N(C6CCC(=O)NC6=O)C7=O)C5)CC3)CC4)n2)cc1)c1cc(Cl)c(OCCCl)c(C#N)c1` (stereo not shown) [Compound 30 trifluoroacetate, 3-chloro-2-(2-chloroethoxy)-5-(2-(4-((2-(9-(1-(1-(2-(2,6-dioxopiperidin-3-yl)-1,3-dioxoisoindolin-5-yl)azetidin-3-yl)piperidin-4-yl)-3,9-diazaspiro[5.5]undecan-3-yl)pyrimidin-4-yl)methoxy)phenyl)propan-2-yl)benzonitrile], the IC50 was 834 nM.
With `Cn1c(=O)n(C2CCC(=O)NC2=O)c2cccc(CN3CC(N4CCC(N5CCC6(CCN(c7nccc(COc8ccc(C(C)(C)c9cc(Cl)c(OCCCl)c(C#N)c9)cc8)n7)CC6)CC5)CC4)C3)c21` (stereo not shown) [Compound 31 trifluoroacetate, 3-chloro-2-(2-chloroethoxy)-5-(2-(4-((2-(9-(1-(1-((1-(2,6-dioxopiperidin-3-yl)-3-methyl-2-oxo-2,3-dihydro-1H-benzo[d]imidazol-4-yl)methyl)azetidin-3-yl)piperidin-4-yl)-3,9-diazaspiro[5.5]undecan-3-yl)pyrimidin-4-yl)methoxy)phenyl)propan-2-yl)benzonitrile], the IC50 is 401 nM.
On to `CC(C)(c1ccc(OCc2ccnc(N3CCC(C4CCN(CC5CCN(c6ccc7c(c6)C(=O)N(C6CCC(=O)NC6=O)C7=O)CC5)CC4)CC3)n2)cc1)c1cc(Cl)cc(C#N)c1` (stereo not shown) [Compound 38 trifluoroacetate, 3-chloro-5-(2-(4-((2-(1′-((1-(2-(2,6-dioxopiperidin-3-yl)-1,3-dioxoisoindolin-5-yl)piperidin-4-yl)methyl)-[4,4′-bipiperidin]-1-yl)pyrimidin-4-yl)methoxy)phenyl)propan-2-yl)benzonitrile], for which the IC50 was 883 nM.
Regarding `CC(C)(c1ccc(OCc2ccnc(N3CCC(CN4CCN(c5cccc6c5C(=O)N(C5CCC(=O)NC5=O)C6=O)CC4)CC3)n2)cc1)c1cc(Cl)cc(C#N)c1` (stereo not shown) [Compound 39 trifluoroacetate, 3-chloro-5-(2-(4-((2-(4-((4-(2-(2,6-dioxopiperidin-3-yl)-1,3-dioxoisoindolin-4-yl)piperazin-1-yl)methyl)piperidin-1-yl)pyrimidin-4-yl)methoxy)phenyl)propan-2-yl)benzonitrile], the IC50 amounted to 936 nM.
For the compound `CC(C)(c1ccc(OCc2ccnc(N3CCC(N4CCC(CN5CCN(c6cccc7c6C(=O)N(C6CCC(=O)NC6=O)C7=O)CC5)CC4)CC3)n2)cc1)c1cc(Cl)cc(C#N)c1` (stereo not shown) [Compound 40 trifluoroacetate, 3-chloro-5-(2-(4-((2-(4-((4-(2-(2,6-dioxopiperidin-3-yl)-1,3-dioxoisoindolin-4-yl)piperazin-1-yl)methyl)-[1,4′-bipiperidin]-1′-yl)pyrimidin-4-yl)methoxy)phenyl)propan-2-yl)benzonitrile], the IC50 was 764 nM.
Take `CC(C)(c1ccc(OCc2ccnc(N3CCC(CN4CCN(c5ccc6c(c5)C(=O)N(C5CCC(=O)NC5=O)C6=O)CC4)CC3)n2)cc1)c1cc(Cl)cc(C#N)c1` (stereo not shown) [Compound 41 trifluoroacetate, 3-chloro-5-(2-(4-((2-(4-((4-(2-(2,6-dioxopiperidin-3-yl)-1,3-dioxoisoindolin-5-yl)piperazin-1-yl)methyl)piperidin-1-yl)pyrimidin-4-yl)methoxy)phenyl)propan-2-yl)benzonitrile]: the IC50 is 633 nM.
Turning to `CC(C)(c1ccc(OCc2ccnc(N3CCC(N4CCC(CN5CCN(c6ccc7c(c6)C(=O)N(C6CCC(=O)NC6=O)C7=O)CC5)CC4)CC3)n2)cc1)c1cc(Cl)cc(C#N)c1` (stereo not shown) [Compound 42 trifluoroacetate, 3-chloro-5-(2-(4-((2-(4-((4-(2-(2,6-dioxopiperidin-3-yl)-1,3-dioxoisoindolin-5-yl)piperazin-1-yl)methyl)-[1,4′-bipiperidin]-1′-yl)pyrimidin-4-yl)methoxy)phenyl)propan-2-yl)benzonitrile], the IC50 worked out at 453 nM.
On to `Cc1ncsc1-c1ccc([C@H](C)NC(=O)[C@@H]2C[C@@H](O)CN2C(=O)[C@@H](NC(=O)CN2CCC(N3CCC(CN4CCN(c5nccc(COc6ccc(C(C)(C)c7cc(Cl)cc(C#N)c7)cc6)n5)CC4)CC3)CC2)C(C)(C)C)cc1` [Compound 43 trifluoroacetate, (2S,4R)-1-((S)-2-(2-(4-((4-(4-((4-(2-(3-chloro-5-cyanophenyl)propan-2-yl)phenoxy)methyl)pyrimidin-2-yl)piperazin-1-yl)methyl)-[1,4′-bipiperidin]-1′-yl)acetamido)-3,3-dimethylbutanoyl)-4-hydroxy-N-((S)-1-(4-(4-methylthiazol-5-yl)phenyl)ethyl)pyrrolidine-2-carboxamide], for which the IC50 was found to be 94 nM.
For the compound `CC(C)(c1ccc(OCc2ccnc(N3CCN(C4CCN(C5CCC6(CC5)CN(c5ccc7c(c5)C(=O)N(C5CCC(=O)NC5=O)C7=O)C6)CC4)CC3)n2)cc1)c1cc(Cl)cc(C#N)c1` (stereo not shown) [Compound 46 trifluoroacetate, 3-chloro-5-(2-(4-((2-(4-(1-(2-(2-(2,6-dioxopiperidin-3-yl)-1,3-dioxoisoindolin-5-yl)-2-azaspiro[3.5]nonan-7-yl)piperidin-4-yl)piperazin-1-yl)pyrimidin-4-yl)methoxy)phenyl)propan-2-yl)benzonitrile], the IC50 worked out at 461 nM.
Regarding `CC(C)(c1ccc(OCc2ccnc(N3CC(N4CCC(CN5CCN(c6ccc7c(c6)C(=O)N(C6CCC(=O)NC6=O)C7=O)CC5)CC4)C3)n2)cc1)c1cc(Cl)cc(C#N)c1` (stereo not shown) [Compound 47 trifluoroacetate, 3-chloro-5-(2-(4-((2-(3-(4-((4-(2-(2,6-dioxopiperidin-3-yl)-1,3-dioxoisoindolin-5-yl)piperazin-1-yl)methyl)piperidin-1-yl)azetidin-1-yl)pyrimidin-4-yl)methoxy)phenyl)propan-2-yl)benzonitrile], the IC50 turned out to be 724 nM.
Consider `CC(C)(c1ccc(OCc2ccnc(N3CC(N4CCC(CN5CCN(c6cccc7c6C(=O)N(C6CCC(=O)NC6=O)C7=O)CC5)CC4)C3)n2)cc1)c1cc(Cl)cc(C#N)c1` (stereo not shown) [Compound 48 trifluoroacetate, 3-chloro-5-(2-(4-((2-(3-(4-((4-(2-(2,6-dioxopiperidin-3-yl)-1,3-dioxoisoindolin-4-yl)piperazin-1-yl)methyl)piperidin-1-yl)azetidin-1-yl)pyrimidin-4-yl)methoxy)phenyl)propan-2-yl)benzonitrile], for which the IC50 came out at 608 nM.
With `CC(C)(c1ccc(OCc2ccnc(N3CCN(C4CCN(CC5CCN(c6ccc7c(c6)C(=O)N(C6CCC(=O)NC6=O)C7=O)CC5)CC4)CC3)n2)cc1)c1cc(Cl)cc(C#N)c1` (stereo not shown) [Compound 49 trifluoroacetate, 3-chloro-5-(2-(4-((2-(4-(1-((1-(2-(2,6-dioxopiperidin-3-yl)-1,3-dioxoisoindolin-5-yl)piperidin-4-yl)methyl)piperidin-4-yl)piperazin-1-yl)pyrimidin-4-yl)methoxy)phenyl)propan-2-yl)benzonitrile], the IC50 came out at 494 nM.
As for `Cc1ncsc1-c1ccc([C@H](C)NC(=O)[C@@H]2C[C@@H](O)CN2C(=O)[C@@H](NC(=O)CN2CCC(CN3CCC(N4CCN(c5nccc(COc6ccc(C(C)(C)c7cc(Cl)cc(C#N)c7)cc6)n5)CC4)CC3)CC2)C(C)(C)C)cc1` [Compound 50 trifluoroacetate, (2S,4R)-1-((S)-2-(2-(4-((4-(4-(4-((4-(2-(3-chloro-5-cyanophenyl)propan-2-yl)phenoxy)methyl)pyrimidin-2-yl)piperazin-1-yl)piperidin-1-yl)methyl)piperidin-1-yl)acetamido)-3,3-dimethylbutanoyl)-4-hydroxy-N-((S)-1-(4-(4-methylthiazol-5-yl)phenyl)ethyl)pyrrolidine-2-carboxamide], the figure is 398 nM; as for `Cc1ncsc1-c1ccc([C@H](C)NC(=O)[C@@H]2C[C@@H](O)CN2C(=O)[C@@H](NC(=O)CN2CCC(CN3CCN(c4nccc(COc5ccc(C(C)(C)c6cc(Cl)cc(C#N)c6)cc5)n4)CC3)CC2)C(C)(C)C)cc1` [Compound 51 trifluoroacetate, (2S,4R)-1-((S)-2-(2-(4-((4-(4-((4-(2-(3-chloro-5-cyanophenyl)propan-2-yl)phenoxy)methyl)pyrimidin-2-yl)piperazin-1-yl)methyl)piperidin-1-yl)acetamido)-3,3-dimethylbutanoyl)-4-hydroxy-N-((S)-1-(4-(4-methylthiazol-5-yl)phenyl)ethyl)pyrrolidine-2-carboxamide], 825 nM.
As for `CC(C)(c1ccc(OCc2ccnc(N3CCN(C4CN(C5CCCN(c6ccc7c(c6)C(=O)N(C6CCC(=O)NC6=O)C7=O)C5)C4)CC3)n2)cc1)c1cc(Cl)cc(C#N)c1` (stereo not shown) [Compound 52 trifluoroacetate, 3-chloro-5-(2-(4-((2-(4-(1-(1-(2-(2,6-dioxopiperidin-3-yl)-1,3-dioxoisoindolin-5-yl)piperidin-3-yl)azetidin-3-yl)piperazin-1-yl)pyrimidin-4-yl)methoxy)phenyl)propan-2-yl)benzonitrile], the figure is 956 nM.
As for `CC(C)(c1ccc(OCc2ccnc(N3CCN(C4CN(C5CC6(CCN(c7ccc8c(c7)C(=O)N(C7CCC(=O)NC7=O)C8=O)CC6)C5)C4)CC3)n2)cc1)c1cc(Cl)cc(C#N)c1` (stereo not shown) [Compound 53 trifluoroacetate, 3-chloro-5-(2-(4-((2-(4-(1-(7-(2-(2,6-dioxopiperidin-3-yl)-1,3-dioxoisoindolin-5-yl)-7-azaspiro[3.5]nonan-2-yl)azetidin-3-yl)piperazin-1-yl)pyrimidin-4-yl)methoxy)phenyl)propan-2-yl)benzonitrile], the IC50 worked out at 623 nM.
